# Where a name gives a salt, the structure may show the parent alone. Marks after values point to notes of the source that are not given here.
# Key:
# ovariectomized rats [1] = experiment: Effect on ovariectomized rats: lumbar bone density; assay type: in vivo, Female Wistar-Imamichi rats; conditions: sham group = 100%, control OVX group 85.2%
# Text: (§1) Female Wistar-Imamichi rats were subjected to ovariectomy (OVX). As test drugs, use was made of L-N-6-(1-iminoethyl)lysine hydrochloride (NIL) and S-ethylisothiourea (EIT) which are known as selective iNOS inhibitors. […] To confirm the validity of the test system, 17-β-estradiol (βE2) was also employed.
# (§2) One day after OVX, the rats were divided into 7 groups each having 7 animals. The administration of the drug was started on the day 4 after OVX. As a control, a sham group (7 animals) was also employed. NIL was orally administered in a dose of 0.1 or 0.02 mg/kg (0.1 ml per 100 g of body weight) 5 times per week for 10 weeks.
# In this graph, the data are expressed in "mean ± standard deviation". According to Dunnet's multiple comparison method, the statistically significant differences from the control ovariectomy group are expressed as follows: • **: p < 0.01, ***: p < 0.001.
# nNOS/iNOS = conditions: cited from earlier work
# ovariectomized rats [2] = experiment: Effect on ovariectomized rats: biochemical parameter of urine (bone resorption marker); assay type: in vivo, Female Wistar-Imamichi rats; conditions: for D-pyr/Cre: OVX rats, urine collected after the final administration, mean ± standard deviation, n = 7, control OVX 11.83 ± 2.02
# Text: as §1, §2
# According to Dunnet's multiple comparison method, the statistically significant differences from the control ovariectomy group are expressed as follows: **: p < 0.01, ***: p < 0.001.
# Number of animals/group = 7. Mean ± standard deviation.
# eNOS/iNOS = conditions: cited from earlier work
# cNOS/iNOS = conditions: cited from earlier work
SMILES,"lumber bone density (ovariectomized rats [1]; EIT administration group, 24 hours after the final administration, p < 0.01) [%]",nNOS/iNOS (NOS inhibitory activity expressed in the ratio of IC50) (nNOS/iNOS),"excretion of deoxypyridinoline (D-pyr) versus control OVX group (in words) (ovariectomized rats [2]; EIT administration group, no statistically significant difference)",D-pyr/Cre (ovariectomized rats [2]; dose 0.1 mg/kg),eNOS/iNOS (NOS inhibitory activity expressed in the ratio of IC50) (eNOS/iNOS),cNOS/iNOS (NOS inhibitory activity expressed in the ratio of IC50) (cNOS/iNOS),"lumber bone density (ovariectomized rats [1]; 0.02 mg/kg orally, 5 times per week for 10 weeks) [%]","lumber bone density (ovariectomized rats [1]; 0.1 mg/kg orally, 5 times per week for 10 weeks) [%]","excretion of deoxypyridinoline (D-pyr), acceleration versus control OVX group (in words) (ovariectomized rats [2]; 0.02 mg/kg, p < 0.01)",D-pyr/Cre (ovariectomized rats [2]; dose 0.02 mg/kg)
"CCSC(=N)N [EIT, S-ethylisothiourea]",92.6,19.23,a tendency toward decrease,9.95 ± 1.71,28.46,–,–,–,–,–
"CC(=N)NCCCC[C@H](N)C(=O)O [NIL, L-N-6-(1-iminoethyl)lysine hydrochloride]",–,–,–,10.43 ± 1.15,–,28,86.8,90.2,significantly inhibited,8.70 ± 1.59**
"C[C@]12CC[C@@H]3c4ccc(O)cc4CC[C@H]3[C@@H]1CC[C@@H]2O [βE2, 17-β-estradiol]",–,–,–,–,–,–,–,–,–,4.16 ± 1.45**
